Laboratory results reported in patent publication US20250011322A1, “MEDICAL COMPOUND FOR THE INHIBITION OF ALDEHYDE DEHYDROGENASE SUBTYPE 1A” (Theranib Inc., priority 2023, published 2025).
“Also recorded” adds a separate entry of the source.

What was measured:
ALDH1A3 = biological target: T1, ALDH1A3 (Homo sapiens, UniProt P47895); experiment: Aldefluor test in MDA-MB-231 cells overexpressing ALDH1A3; format: cell-based; conditions: for IC50: Aldefluor test; for Inhibition of ALDH1A3-induced Aldefluor activity: dilution series of compound
T1 construct: expressed in transfected cells; host or cells: MDA-MB-231
T1 sequence (P47895 1-512): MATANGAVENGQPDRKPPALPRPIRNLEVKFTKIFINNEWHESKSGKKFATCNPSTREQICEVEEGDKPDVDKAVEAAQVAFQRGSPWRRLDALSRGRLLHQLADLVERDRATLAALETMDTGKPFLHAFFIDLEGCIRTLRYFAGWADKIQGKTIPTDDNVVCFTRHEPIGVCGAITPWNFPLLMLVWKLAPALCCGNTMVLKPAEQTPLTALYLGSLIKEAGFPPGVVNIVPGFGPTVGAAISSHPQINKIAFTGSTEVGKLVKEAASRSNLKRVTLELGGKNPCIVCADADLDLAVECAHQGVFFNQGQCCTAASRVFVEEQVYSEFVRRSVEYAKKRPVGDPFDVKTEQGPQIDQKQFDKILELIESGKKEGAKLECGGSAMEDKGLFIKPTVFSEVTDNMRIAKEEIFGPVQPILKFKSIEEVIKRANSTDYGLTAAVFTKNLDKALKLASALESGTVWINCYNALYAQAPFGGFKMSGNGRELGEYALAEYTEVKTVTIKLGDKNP
Description: (§1) In vitro assays were conducted on breast cancer cell lines MDA-MB-231, MDA-MB-468, and HCC1806 cells. Specifically, the MDA-MB-231 cell line, characterized by a low expression of ALDH1A, was used as such or after being engineered to overexpress the ALDH1A1 or ALDH1A3 isoform, while the MDA-MB-468 and HCC1806 cell lines, characterized by a high expression of ALDH1A3 were used as such or after being knocked down for the ALDH1A3 isoform (FIG. 1). […] The experiments were conducted using the Aldefluor® test, specific for aldehyde dehydrogenases.

ALDH1A1 = biological target: T2, ALDH1A1 (Homo sapiens, UniProt P00352); experiment: Aldefluor test in MDA-MB-231 cells overexpressing ALDH1A1; format: cell-based
T2 construct: expressed in transfected cells; host or cells: MDA-MB-231
T2 sequence (P00352 1-501): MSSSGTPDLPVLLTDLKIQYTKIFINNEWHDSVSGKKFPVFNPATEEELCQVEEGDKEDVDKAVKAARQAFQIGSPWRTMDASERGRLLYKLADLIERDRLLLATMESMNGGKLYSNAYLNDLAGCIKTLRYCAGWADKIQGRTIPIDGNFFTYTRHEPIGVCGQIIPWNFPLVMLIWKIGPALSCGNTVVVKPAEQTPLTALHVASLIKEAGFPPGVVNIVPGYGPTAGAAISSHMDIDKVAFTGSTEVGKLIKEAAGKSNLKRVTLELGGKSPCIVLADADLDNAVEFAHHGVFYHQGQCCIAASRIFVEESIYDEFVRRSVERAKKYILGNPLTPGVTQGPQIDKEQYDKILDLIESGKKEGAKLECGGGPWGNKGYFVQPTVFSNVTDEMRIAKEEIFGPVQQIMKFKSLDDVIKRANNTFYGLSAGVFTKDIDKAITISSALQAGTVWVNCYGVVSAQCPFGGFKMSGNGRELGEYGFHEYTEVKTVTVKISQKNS
Description: as §1

[1] = test system: ALDH1A3 target genes (RARB, DHRS3, ELF3, RARRES1); experiment: Expression of ALDH1A3 target genes in breast cancer cell lines by QPCR; format: cell-based; conditions: 24 hours of treatment; for Expression of ALDH1A3 target genes in ALDH1A3-expressing lines: ALDH1A3-overexpressing MDA-MB-231, MDA-MB-468 and HCC1806 cells; for Expression of ALDH1A3 target genes in native line: native MDA-MB-231 cells
Description: FIGS. 5A, 5B, 5C. […] Expression of DHRS3, RARB, ELF3, and RARRES1 in MDA-MB-231 cells with ALDH1A3 overexpression (FIG. 5A), MDA-MB-468 cells (with ALDH1A3 shRNA knockdown as control, FIG. 5B), and HCC1806 (with ALDH1A3 shRNA knockdown as control, FIG. 5C) is determined 24 hours after treatment with 0, 1, 10, or 100 nM compound 1 by QPCR. Significance determined by one-way Anova, p-value […], <0.01=**, <0.001=***, <0.0001=****.
Subsequently, to confirm the direct inhibitory activity of the tested compounds on the enzymatic isoform of interest, their effect on the expression of ALDH1A3 target genes, and in particular of RARB, DHRS3, ELF3, and RARRES1, was investigated in the aforementioned cell lines.

MDA-MB-231 tumors = experiment: Orthotopic MDA-MB-231 xenograft (native or ALDH1A3-overexpressing) in NOD/SCID mice; format: in vivo; conditions: for RARB level in tumors (pharmacodynamic analysis): ALDH1A3-overexpressing MDA-MB-231 tumors harvested day 41, treatment from day 15
Description: (§2) In vivo experimentation then ensued. The in vivo assays were conducted using eight-week-old female NOD/SCID mice orthotopically injected with 2×10^6 native or ALDH1A3-overexpressing MDA-MB-231 cells. 60 female NOD-SCID mice had approximately 2,000,000 MDA-MB-231 cells injected into a 5th mammary fat pad. 30 mice were injected with MDA-MB-231 bearing a vector control (Groups 1-3), and 30 mice were injected with MDA-MB-231 bearing an ALDH1A3 overexpression vector (Groups 4-6). On day 15 of inoculation, the treatment phase began. Groups 1 and 4 (n=10, 10 respectively) received saline i.p. injections 100 uL every day for 26 days. Groups 2 and 5 (n=10, 10) received 0.4 mg/kg drug i.p. in 100 uL saline every day for 26 days. Groups 3 and 6 (n=10, 10) received 4.0 mg/kg drug i.p. in 100 uL saline every day for 26 days. Caliper measurements of tumors and body weights were taken throughout the treatment phase. After 26 days, all mice were euthanized, the tumors were harvested, and blood was drawn for analysis.
On day 15, the animals were treated with compound 1, administered daily intraperitoneally at a concentration of 0.4 mg/Kg or 4 mg/Kg, then constantly monitored for body weight increase (FIG. 7) and tumor volume (FIG. 8). Once the tumors became palpable, we started treatment of the animals (day 15). After 26 days of treatment, the animals were sacrificed and the tumors were collected and evaluated for size (FIGS. 8 and 9) and weight (FIG. 10).

[2] = Toxicity readouts in the xenograft study: body weight, serum ALT, serum creatinine; format: in vivo, mice
Description: as §2
This is evidenced by the trend over time of their body weight (FIG. 7) and also the analysis of alanine aminotransferase (ALT) and creatinine levels in serum collected from terminal animals (FIGS. 12A and 12B).

[3] = MDA-MB-231 cells overexpressing ALDH1A3
[4] = MDA-MB-231 cells with ALDH1A3 overexpression
[5] = daily treatment from day 15, measured on day 41, mice

Compound	IC50 (ALDH1A3; [3]) [nM]	Inhibition of ALDH1A3-induced Aldefluor activity (ALDH1A3; [4])	Inhibition of Aldefluor assay activity of ALDH1A1 (ALDH1A1; 100 uM)	Inhibition of Aldefluor activity induced by ALDH1A1 overexpression (ALDH1A1; all plotted concentrations)	Expression of ALDH1A3 target genes in ALDH1A3-expressing lines [1]	Expression of ALDH1A3 target genes in native line [1]	Tumor growth (volume, weight) induced by ALDH1A3 (MDA-MB-231 tumors; 0.4 or 4 mg/Kg i.p. daily for 26 days from day 15, NOD/SCID mice)	RARB level in tumors (pharmacodynamic analysis) (MDA-MB-231 tumors)	RARB level in tumors (pharmacodynamic analysis) (MDA-MB-231 tumors; listed as compound 1)	Toxicity (overall) ([2]; daily i.p. 0.4 or 4 mg/Kg for 26 days, mice)	Serum alanine aminotransferase (ALT) [2, 5]	Serum creatinine [2, 5]	Body weight ([2]; mice injected with MDA-MB-231 cells, treatment from day 15)	Inhibition of Aldefluor assay activity of ALDH1A3 (ALDH1A3; 100 uM, MDA-MB-231 cells overexpressing ALDH1A3)	Amounts distinguishable from control counts in the plot of Aldefluor count (ALDH1A3; MDA-MB-231 cells with ALDH1A3 overexpression, all other concentrations not distinguishable from control) [µM]
CC(=O)c1ccc(-c2cc(-c3ccc(C(C)=O)cc3)c3nc(-c4ccccc4)cn3c2)cc1 [Compound 1, 1,1′-((2-phenylimidazo[1,2-a]pyridine-6,8-diyl)bis(4,1-phenylene))bis(ethan-1-one)]	1.9	inhibits Aldefluor activity	did not inhibit	does not inhibit Aldefluor activity	statistically significantly reduced the expression of the target genes; also recorded: specifically inhibit the expression of ALDH1A3 target genes	neither compound 1 nor compound 2 produced significant results	reduce, in a statistically significant way, the increased tumor growth	reduces ALDH1A3-inducible RARB expression	significantly reduced RARB level	no detectable toxicity	does not affect	does not affect	No significant changes were observed		
CC(=O)c1ccc(-c2cc(-c3ccc(C#N)cc3)cn3cc(-c4ccccc4)nc23)cc1 [Compound 2, 4-(8-(4-acetylphenyl)-2-phenylimidazo[1,2-a]pyridin-6-yl)benzonitrile]	9.4	inhibits Aldefluor activity			statistically significantly reduced the expression of the target genes	neither compound 1 nor compound 2 produced significant results									
CCN(CC)c1ccc(C=O)cc1 [DEAB, 4-Diethylaminobenzaldehyde, reference compound]														inhibits	
c1ccc(-c2ccc3nc(-c4ccccc4)cn3c2)cc1 [GA11, reference compound]	~100000	inhibit													100
